Source: ChEMBL document CHEMBL1811835, “Intramolecular ion-pair prodrugs of zanamivir and guanidino-oseltamivir” (Bioorg Med Chem, 2011)

How the values were obtained:
[1] = Octanol-water distribution coefficient, log D of the compound at pH 7.4 at 100 ug/mL; type: physicochemical
Plasma [2] = experiment: Stability in Sprague-Dawley rat plasma at 1 mM incubated for 24 hrs at 37 degC by MALDI-TOF mass spectrometry; type: ADME, cell-free; settings: 1000 µM
Plasma [3] = experiment: Stability in Sprague-Dawley rat plasma at 1 mM incubated for 24 hrs at 37 degC by LC-QTOF mass spectrometry; type: ADME, cell-free; settings: 1000 µM
[4] = Octanol-water distribution coefficient, log D of the compound at pH 6.5; type: physicochemical

logD ([1]; read-out: logD) | logD [4] | SMILES | also measured
-0.28 |  | CCOC(=O)C1=C[C@H](NC(=N)N)[C@@H](NC(C)=O)[C@H]([C@H](O)[C@H](O)CO)O1 | 
0.75 |  | CC(=O)N[C@H]1[C@H]([C@H](O)[C@H](O)CO)OC(C(=O)OCCCOC(=O)c2ccc3ccccc3c2O)=C[C@@H]1NC(=N)N | Stability (Plasma [2]): Stable; Stability (Plasma [3]): Stable
0.31 | -1.17 | CCOC(=O)C1=C[C@@H](OC(CC)CC)[C@H](NC(C)=O)[C@@H](NC(=N)N)C1 | 
0.82 |  | CCC(CC)O[C@@H]1C=C(C(=O)OCCCOC(=O)c2ccc3ccccc3c2O)C[C@H](NC(=N)N)[C@H]1NC(C)=O | 
 |  | CCC(CC)O[C@@H]1C=C(C(=O)O)C[C@H](NC(=N)N)[C@H]1NC(C)=O | logD [1]: -0.13
0.16 | 0.25 | O=C(O)c1ccc2ccccc2c1O [CARBOXYNAPHTHOL] | 
 | -1.31 | CCCCCCCOC(=O)C1=C[C@H](NC(=N)N)[C@@H](NC(C)=O)[C@H]([C@H](O)[C@H](O)CO)O1 [ZANAMIVIR HEPTYL ESTER] | 
-1 |  | CC(=O)N[C@H]1[C@H]([C@H](O)[C@H](O)CO)OC(C(=O)O)=C[C@@H]1N=C(N)N [ZANAMIVIR] | 

SMILES | logD ([1]; read-out: logD) | logD [4] | also measured
CCC(CC)O[C@@H]1C=C(C(=O)O)C[C@H](N)[C@H]1NC(C)=O [OSELTAMIVIR CARBOXYLATE] | -1.5 |  | 
